The text below walks through data of patent US20140155384A1, “COMPOUNDS AND METHODS OF TREATING DIABETES” (Medivation Technologies, Inc., priority 2011, published 2014).

Assay [1] deals with T1, human recombinant adrenergic α1D receptor (Homo sapiens, UniProt P25100).
T1 construct: expressed in transfected cells; host or cells: HEK-293
T1 sequence (P25100 1-572): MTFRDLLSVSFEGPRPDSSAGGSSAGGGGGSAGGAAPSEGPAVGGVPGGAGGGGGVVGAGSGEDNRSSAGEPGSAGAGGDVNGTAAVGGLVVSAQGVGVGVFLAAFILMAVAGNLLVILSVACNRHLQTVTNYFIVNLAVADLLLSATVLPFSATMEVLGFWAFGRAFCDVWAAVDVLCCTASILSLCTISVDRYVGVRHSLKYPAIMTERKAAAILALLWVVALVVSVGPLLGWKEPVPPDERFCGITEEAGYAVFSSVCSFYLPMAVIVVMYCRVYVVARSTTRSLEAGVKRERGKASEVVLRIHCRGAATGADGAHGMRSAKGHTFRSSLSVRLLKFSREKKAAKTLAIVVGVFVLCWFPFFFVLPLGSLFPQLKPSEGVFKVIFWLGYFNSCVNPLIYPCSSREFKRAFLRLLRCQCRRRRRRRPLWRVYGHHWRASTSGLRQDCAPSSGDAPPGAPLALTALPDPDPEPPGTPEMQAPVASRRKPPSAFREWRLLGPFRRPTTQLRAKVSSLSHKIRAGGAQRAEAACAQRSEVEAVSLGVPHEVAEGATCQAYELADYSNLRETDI
The assay is described as follows: Radioligand binding, adrenergic α1D receptor ([3H]Prazosin). The following applies: 0.1 μM compound; HEK-293 cells; 0.6 nM [3H]Prazosin; read-out: Percentage inhibition of ligand binding, Adrenergic α1D. As for the experimental part: Compounds were incubated with 0.6 nM [3H]Prazosin for 60 min at 25° C. Non-specific binding was estimated in the presence of 10 μM phentolamine. Receptor proteins were filtered and washed, the filters were then counted to determine [3H]Prazosin specifically bound. Compounds were screened at 1 μM or lower, using 1% DMSO as vehicle. Biochemical assay results are presented as the percent inhibition of specific binding in Table 2.

Assay [2] deals with T2, human recombinant adrenergic α2B receptor (Homo sapiens, UniProt P18089).
T2 construct: expressed in transfected cells; host or cells: CHO-K1
T2 sequence (P18089 1-450): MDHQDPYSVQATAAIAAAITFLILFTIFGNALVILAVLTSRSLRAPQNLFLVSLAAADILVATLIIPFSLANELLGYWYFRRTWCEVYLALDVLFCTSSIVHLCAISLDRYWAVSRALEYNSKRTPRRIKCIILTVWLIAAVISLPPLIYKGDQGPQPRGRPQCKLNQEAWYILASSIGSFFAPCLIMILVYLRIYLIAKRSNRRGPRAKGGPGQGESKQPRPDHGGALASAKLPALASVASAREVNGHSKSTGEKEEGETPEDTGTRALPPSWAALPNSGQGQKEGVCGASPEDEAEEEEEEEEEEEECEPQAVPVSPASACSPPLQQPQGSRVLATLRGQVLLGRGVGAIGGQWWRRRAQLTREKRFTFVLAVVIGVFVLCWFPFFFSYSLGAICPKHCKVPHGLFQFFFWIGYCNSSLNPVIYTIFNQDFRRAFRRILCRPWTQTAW
The assay is described as follows: Radioligand binding, adrenergic α2B receptor ([3H]Rauwolscine). Conditions: 0.1 μM compound, CHO-K1 cells, read-out: Percentage inhibition of ligand binding, Adrenergic α2B. The method, then:
To evaluate in radioligand binding assays the activity of compounds, human recombinant adrenergic α2B receptor expressed in Chinese hamster ovary (CHO) K1 cells (Uhlen, S. et al, Eur. J. Pharmacol. 343(1):93, 1998) in a modified Tris-HCl buffer (50 mM Tris-HCl, pH 7.4, 12.5 mM MgCl2, 1 mM EDTA, 0.2% BSA) was used. Compounds were incubated with 2.5 nM [^3H]Rauwolscine for 60 min at 25° C. Non-specific binding was estimated in the presence of 10 μM Prazosin. Receptor proteins were filtered and washed, the filters were then counted to determine [^3H]Rauwolscine specifically bound. Compounds were screened at 1 μM or lower, using 1% DMSO as vehicle. Compounds were tested in this biochemical assay and percent inhibition of specific binding was determined. Biochemical assay results are presented as the percent inhibition of specific binding in Table 2.

Assay [3] has as its target T3, human recombinant adrenergic α2A receptor (Homo sapiens, UniProt P08913).
T3 construct: expressed in transfected cells; host or cells: insect Sf9 cells
T3 sequence (P08913 1-465): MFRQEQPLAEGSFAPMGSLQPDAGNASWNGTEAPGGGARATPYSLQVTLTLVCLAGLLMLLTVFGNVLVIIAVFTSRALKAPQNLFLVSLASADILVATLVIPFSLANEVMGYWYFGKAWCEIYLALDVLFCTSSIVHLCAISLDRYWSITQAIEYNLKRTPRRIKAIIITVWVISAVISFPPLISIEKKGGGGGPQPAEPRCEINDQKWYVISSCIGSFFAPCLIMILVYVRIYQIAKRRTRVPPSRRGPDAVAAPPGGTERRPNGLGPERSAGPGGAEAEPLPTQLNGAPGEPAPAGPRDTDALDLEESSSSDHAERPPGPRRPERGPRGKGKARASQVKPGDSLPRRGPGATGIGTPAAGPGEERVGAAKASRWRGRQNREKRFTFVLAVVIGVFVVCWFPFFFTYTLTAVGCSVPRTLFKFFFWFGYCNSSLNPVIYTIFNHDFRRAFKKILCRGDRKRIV
The assay is described as follows: Radioligand binding, adrenergic α2A receptor ([3H]MK-912). The following applies: 0.1 μM compound; Sf9 cells; 1 nM [3H]MK-912; read-out: Percentage inhibition of ligand binding, Adrenergic α2A. The method, then: To evaluate in radioligand binding assays the activity of compounds, human recombinant adrenergic α2A receptor expressed in insect Sf9 cells (Uhlen, S. et al, J. Pharmacol. Exp. Ther. 271:1558, 1994) in a modified Tris-HCl buffer (50 mM Tris-HCl, pH 7.4, 12.5 mM MgCl2, 2 mM EDTA) was used. Compounds were incubated with 1 nM [^3H]MK-912 for 60 min at 25° C. MK912 is (2S-trans)-1,3,4,5′,6,6′,7,12b-octahydro-1′,3′-dimethyl-spiro[2H-benzofuro[2,3-a]quinolizine-2,4′(1′H)-pyrimidin]-2′(3′H)-one hydrochloride Non-specific binding was estimated in the presence of 10 μM WB-4101 (2-(2,6-Dimethoxyphenoxyethyl)aminoethyl-1,4-benzodioxane hydrochloride). Receptor proteins were filtered and washed, the filters were then counted to determine [^3H]MK-912 specifically bound. Compounds were screened at 1 μM or lower, using 1% DMSO as vehicle. Compounds were tested in this biochemical assay and percent inhibition of specific binding was determined. Biochemical assay results are presented as the percent inhibition of specific binding in Table 2.

In assay [4] the target is T4, rat adrenergic α1B receptor (Rattus norvegicus, UniProt P15823).
T4 construct: rat adrenergic α1B receptor obtained from Wistar Rat liver; from tissue; host or cells: Wistar rat liver
T4 sequence (P15823 1-515): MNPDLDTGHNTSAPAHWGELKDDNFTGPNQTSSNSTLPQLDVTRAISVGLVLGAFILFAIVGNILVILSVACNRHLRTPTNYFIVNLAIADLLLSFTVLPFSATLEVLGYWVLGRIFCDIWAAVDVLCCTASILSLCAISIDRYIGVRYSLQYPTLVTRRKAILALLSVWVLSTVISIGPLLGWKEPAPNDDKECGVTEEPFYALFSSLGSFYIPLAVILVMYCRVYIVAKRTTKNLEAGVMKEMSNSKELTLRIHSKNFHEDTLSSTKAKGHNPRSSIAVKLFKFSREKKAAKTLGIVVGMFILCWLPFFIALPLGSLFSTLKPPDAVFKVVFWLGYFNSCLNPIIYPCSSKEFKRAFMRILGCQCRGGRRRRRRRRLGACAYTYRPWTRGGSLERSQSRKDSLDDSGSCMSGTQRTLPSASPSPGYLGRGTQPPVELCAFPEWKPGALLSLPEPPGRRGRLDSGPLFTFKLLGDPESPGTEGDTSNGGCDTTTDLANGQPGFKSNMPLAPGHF
The assay is described as follows: Radioligand binding, adrenergic α1B receptor ([3H]Prazosin). The following applies: 0.1 μM compound, Wistar rat liver, read-out: Percentage inhibition of ligand binding, Adrenergic α1B. The method, then: To evaluate in radioligand binding assays the activity of compounds, rat adrenergic α1B receptor obtained from Wistar Rat liver (Garcia-S' ainz, J. et al, Biochem. Biophys. Res. Commun. 186:760, 1992; Michel, A. et al, Br. J. Pharmacol. 98:883, 1989) in a modified Tris-HCl buffer (50 mM Tris-HCl buffer, pH 7.4, 0.5 mM EDTA) was used. Compounds were incubated with 0.25 nM [^3H]Prazosin for 60 min at […]. Non-specific binding was estimated in the presence of 10 μM phentolamine. Receptor proteins were filtered and washed, the filters were then counted to determine [^3H]Prazosin specifically bound. Compounds were screened at 1 μM or lower, using 1% DMSO as vehicle. Compounds were tested in this biochemical assay and percent inhibition of specific binding was determined. Biochemical assay results are presented as the percent inhibition of specific binding in Table 2.

In general, inhibition refers to the change of the read-out against control, counted positive when it falls.

`Cc1ccc2c(c1)c1c(n2-c2ccc(-c3cccc4ccccc34)cn2)CCN(C)C1` [Compound No. 141, 2,8-dimethyl-5-(5-(naphthalen-1-yl)pyridin-2-yl)-2,3,4,5-tetrahydro-1H-pyrido[4,3-b]indole]: the inhibition at 0.1 µM worked out at 50% in assay [1], 82% in assay [2], 69% in assay [3] and 62% in assay [4].

Turning to `Cc1ccc2c(c1)c1c(n2-c2cccc(-c3sccc3C)c2)CCN(C)C1` [Compound 43, 2,8-dimethyl-5-(3-(3-methylthiophen-2-yl)phenyl)-2,3,4,5-tetrahydro-1H-pyrido[4,3-b]indole], the inhibition at 0.1 µM came to 3% in assay [1], 6% in assay [2], 31% in assay [3] and 9% in assay [4].

As to `Cc1ccc2c(c1)c1c(n2-c2ccc(-c3ccc(S(N)(=O)=O)cc3)cn2)CCN(C)C1` [Compound No. 145, 4-(6-(2,8-dimethyl-3,4-dihydro-1H-pyrido[4,3-b]indol-5(2H)-yl)pyridin-3-yl)benzenesulfonamide], the inhibition at 0.1 µM was determined as 73% in assay [1], 83% in assay [2], 71% in assay [3] and 86% in assay [4].

`Cc1ccc2c(c1)c1c(n2-c2cscc2-c2cnc(N(C)C)nc2)CCN(C)C1` [Compound 40]: the inhibition at 0.1 µM came out at 79% in assay [1], 89% in assay [2], 91% in assay [3] and 43% in assay [4].

Turning to `Cc1ccc2c(c1)c1c(n2-c2cccc(-c3cc4ccccc4s3)c2)CCN(C)C1` [Compound 51, 5-(3-(benzo[b]thiophen-2-yl)phenyl)-2,8-dimethyl-2,3,4,5-tetrahydro-1H-pyrido[4,3-b]indole], the inhibition at 0.1 µM turned out to be 12% in assay [1], 7% in assay [2], 27% in assay [3] and 10% in assay [4].

For `Cc1ccc2c(c1)c1c(n2-c2ccc(-c3cccc4[nH]ncc34)cn2)CCN(C)C1` [Compound No. 147, 5-(5-(1H-indazol-4-yl)pyridin-2-yl)-2,8-dimethyl-2,3,4,5-tetrahydro-1H-pyrido[4,3-b]indole], the inhibition at 0.1 µM came to 61% in assay [1], 43% in assay [2], 46% in assay [3] and 72% in assay [4].

`CNC(=O)c1ccc(-c2cscc2-n2c3c(c4cc(C)ccc42)CN(C)CC3)cc1` [Compound No. 155]: the inhibition at 0.1 µM in assay [1] is 63%; in assay [2], 74%; in assay [3], 9%; in assay [4] it was 43%.

On to `Cc1ccc2c(c1)c1c(n2-c2ccccc2-c2c(C)noc2C)CCN(C)C1` [Compound No. 82, 4-(2-(2,8-dimethyl-3,4-dihydro-1H-pyrido[4,3-b]indol-5(2H)-yl)phenyl)-3,5-dimethylisoxazole], for which the inhibition at 0.1 µM is 14% in assay [1], 21% in assay [2], 30% in assay [3] and 14% in assay [4].

For the molecule `Cc1ccc2c(c1)c1c(n2-c2cscc2-c2sccc2C)CCN(C)C1` [Compound 39], the inhibition at 0.1 µM in assay [1] was determined as 62%; in assay [2], 70%; in assay [3], 98%; in assay [4] it was 67%.

Take `Cc1ccc2c(c1)c1c(n2-c2cscc2-c2ccc(O)nc2)CCN(C)C1` [Compound 49]: the inhibition at 0.1 µM was 14% in assay [1], 31% in assay [2], -3% in assay [3] and 12% in assay [4].

With `Cc1ccc2c(c1)c1c(n2-c2cscc2-c2cccc3[nH]ncc23)CCN(C)C1` [Compound 41], the inhibition at 0.1 µM in assay [1] is 76%; in assay [2] it was 70%; in assay [3] it was 87%; in assay [4] it was 77%.
